In PMC3340383, “Synthesis and Evaluation of a Series of 2-Substituted-5-Thiopropylpiperazine (Piperidine)-1,3,4-Oxadiazoles Derivatives as Atypical Antipsychotics” (PLoS ONE, 2012):
Read-outs that look alike come from different tables or passages of the source.

Assays:
[1] = biological target: T1, serotonin 5-HT1A receptor (Rattus norvegicus, UniProt P19327); experiment: 5-HT1A binding assay ([3H]8-OH-DPAT, rat brain cortex); details: read-out: Ki±SEM, 5HT1A
T1 construct: Rat cerebral cortex was homogenized in 20 volumes of ice-cold Tris-HCl buffer; from tissue; host or cells: rat brain (cerebral) cortex
T1 sequence (P19327 1-422): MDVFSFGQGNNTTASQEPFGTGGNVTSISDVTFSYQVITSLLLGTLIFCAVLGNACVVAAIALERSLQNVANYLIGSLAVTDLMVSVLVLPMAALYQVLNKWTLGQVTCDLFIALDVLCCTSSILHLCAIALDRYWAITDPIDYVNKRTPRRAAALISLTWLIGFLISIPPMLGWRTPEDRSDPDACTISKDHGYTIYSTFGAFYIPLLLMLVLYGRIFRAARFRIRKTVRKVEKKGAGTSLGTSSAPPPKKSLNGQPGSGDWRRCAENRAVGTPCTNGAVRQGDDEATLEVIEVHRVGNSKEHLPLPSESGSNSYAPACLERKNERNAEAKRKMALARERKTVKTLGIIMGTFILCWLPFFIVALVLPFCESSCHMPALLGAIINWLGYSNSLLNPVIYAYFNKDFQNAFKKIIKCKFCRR
Experimental: (§1) All the new compounds were dissolved in 5% DMSO. The following specific radioligands and tissue sources were used: (a) serotonin 5-HT1A receptor, [^3H]8-OH-DPAT, rat brain cortex; (b) serotonin 5-HT2A receptor, [^3H]ketanserin, rat brain cortex; (c) serotonin 5-HT2C receptor, [^3H]mesulergine, rat brain cortex; (d) dopamine D2 receptor, [^3H]spiperone, rat striatum; (e) dopamine D3 receptor, [^3H]spiperone, rat olfactory tubercle (f) histamine H1 receptor, [^3H] pyrilamine, guinea pig cerebellum.
(§2) Total binding was determined in the absence of no-specific binding and compounds. Specific binding was determined in the presence of compounds. Non-specific binding was determined as the difference between total and specific binding.
(§3) Percentage of inhibition (%) = (total binding − specific binding)×100%/(total binding − nonspecific binding).
(§4) Ki values were calculated based on the Cheng and Prussoff equation: Ki = IC50/(1+C/Kd) where C represents the concentration of the hot ligand used and Kd its receptor dissociation constant were calculated for each labeled ligand. Mean Ki values and SEM were reported for at least three independent experiments.
Rat cerebral cortex was homogenized in 20 volumes of ice-cold Tris-HCl buffer (50 mM, pH 7.7) using an ULTRA TURAX homogeniser, and was then centrifuged at 32000 g for 10 min. […] The final pellet was resuspended in Tris-HCl buffer containing 10 µM Pargyline, 4 mM CaCl2 and 0.1% ascorbic acid.
Total binding each assay tube was added 900 µL of the tissue suspension, 50 µL of 0.5 nM [^3H]8-OH-DPAT (187.4 Ci/mmol, Perkin Elmer Life Sciences, Boston, MA, USA), 50 µL Tris-HCl buffer containing 10 µM Pargyline, 4 mM CaCl2 and 0.1% ascorbic acid.
Non-specific binding each assay tube was added 900 µL of the tissue suspension, 50 µL of 0.5 nM [^3H]8-OH-DPAT, 50 µL of 10 µM serotonin.
Specific binding each assay tube was added 900 µL of the tissue suspension, 50 µL of 0.5 nM [^3H]8-OH-DPAT, 50 µL of new compounds or reference drug.
(§5) The incubation was followed by a rapid vacuum filtration through Whatman GF/B glass filters, and the filtrates were washed twice with 5mL cold buffer and transferred to scintillation vials. Scintillation fluid (3.0 mL) was added and the radioactivity bound was measured using a Beckman LS 6500 liquid scintillation counter.

[2] = biological target: T2, serotonin 5-HT2A receptor (Rattus norvegicus, UniProt P14842); experiment: 5-HT2A binding assay ([3H]ketanserin, rat brain cortex); details: read-out: Ki±SEM, 5HT2A
T2 construct: Rat cerebral cortex was homogenized in 20 volumes of ice-cold Tris-HCl buffer; from tissue; host or cells: rat brain (cerebral) cortex
Experimental: as §1, §2, §3, §4
Rat cerebral cortex was homogenized in 20 volumes of ice-cold Tris-HCl buffer (50 mM, pH 7.7) using an ULTRA TURAX homogeniser, and centrifuged at 32000 g for 20 min. The resulting pellet was resuspended in the same quantity of the buffer centrifuged for 20 min. The final pellet was resuspended in 50 volumes of the Tris-HCl buffer.
Total binding each assay tube was added 900 µL of the tissue suspension, 50 µL of 0.6 nM [^3H]ketanserin (60.0 Ci/mmol, Perkin Elmer Life Sciences, Boston, MA, USA), 50 µL Tris-HCl buffer.
Non-specific binding each assay tube was added 900 µL of the tissue suspension, 50 µL of 0.6 nM [^3H]ketanserin, 50 µL of 10 µM methisergide.
Specific binding each assay tube was added 900 µL of the tissue suspension, 50 µL of 0.6 nM [^3H]ketanserin, […] of new compounds or reference drug.
as §5, with “5 mL” for “5mL”

dopamine D2 receptor = biological target: T3, dopamine D2 receptor (Rattus norvegicus, UniProt P61169); experiment: D2 dopaminergic binding assay ([3H]spiperone, rat striatum); details: read-out: Ki±SEM, D2
T3 construct: Rat striatum was homogenized in 20 volumes of ice-cold 50 mM Tris-HCl buffer; from tissue; host or cells: rat striatum
Experimental: as §1, §2, §3, §4
Rat striatum was homogenized in 20 volumes of ice-cold 50 mM Tris-HCl buffer (pH 7.7) using an ULTRA TURAX homogeniser, and centrifuged twice for 10 min at 48,000 g with resuspension of the pellet in fresh buffer. The final pellet was resuspended in 50 mM ice-cold Tris-HCl containing 120 mM NaCl, 5 mM KCl, 2 mM CaCl2, 1 mM MgCl2, 0.1% ascorbic acid and 5 µM pargyline.
Total binding each assay tube was added 900 µL of the tissue suspension, 50 µL of 0.5 nM [^3H]spiperone (16.2 Ci/mmol; Perkin Elmer Life Sciences, Boston, MA, USA), 50 µL Tris-HCl buffer containing 120 mM NaCl, 5 mM KCl, 2 mM CaCl2, 1 mM MgCl2, 0.1% ascorbic acid and 5 µM pargyline.
Non-specific binding each assay tube was added 900 µL of the tissue suspension, 50 µL of 0.5 nM [^3H]spiperone, 50 µL of 10 µM (+)-butaclamol.
Specific binding each assay tube was added 900 µL of the tissue suspension, 50 µL of 0.5 nM [^3H]spiperone, 50 µL of new compounds or reference drug.
as §5, with “5 mL” for “5mL”

[3] = [3H]8-OH-DPAT, rat brain cortex, mean of three experiments, >10000 marked b: Ki not calculated, inhibition at 10 µM too low
[4] = [3H]ketanserin, rat brain cortex, mean of three experiments, >10000 marked b: Ki not calculated, inhibition at 10 µM too low
[5] = [3H]spiperone, rat striatum, mean of three experiments, >10000 marked b: Ki not calculated, inhibition at 10 µM too low

T2 sequence (P14842 whole entry): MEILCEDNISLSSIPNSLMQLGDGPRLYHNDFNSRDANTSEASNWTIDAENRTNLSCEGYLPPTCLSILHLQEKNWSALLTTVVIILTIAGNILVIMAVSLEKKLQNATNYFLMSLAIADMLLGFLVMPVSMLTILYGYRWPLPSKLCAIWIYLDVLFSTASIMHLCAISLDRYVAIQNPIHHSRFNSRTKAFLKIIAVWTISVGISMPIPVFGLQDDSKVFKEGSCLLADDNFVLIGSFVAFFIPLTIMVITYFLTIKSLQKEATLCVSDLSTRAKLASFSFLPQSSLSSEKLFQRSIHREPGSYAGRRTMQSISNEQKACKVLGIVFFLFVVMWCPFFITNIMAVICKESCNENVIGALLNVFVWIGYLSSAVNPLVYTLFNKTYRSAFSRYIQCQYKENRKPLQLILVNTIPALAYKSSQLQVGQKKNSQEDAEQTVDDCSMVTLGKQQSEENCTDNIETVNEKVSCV
T3 sequence (P61169 whole entry): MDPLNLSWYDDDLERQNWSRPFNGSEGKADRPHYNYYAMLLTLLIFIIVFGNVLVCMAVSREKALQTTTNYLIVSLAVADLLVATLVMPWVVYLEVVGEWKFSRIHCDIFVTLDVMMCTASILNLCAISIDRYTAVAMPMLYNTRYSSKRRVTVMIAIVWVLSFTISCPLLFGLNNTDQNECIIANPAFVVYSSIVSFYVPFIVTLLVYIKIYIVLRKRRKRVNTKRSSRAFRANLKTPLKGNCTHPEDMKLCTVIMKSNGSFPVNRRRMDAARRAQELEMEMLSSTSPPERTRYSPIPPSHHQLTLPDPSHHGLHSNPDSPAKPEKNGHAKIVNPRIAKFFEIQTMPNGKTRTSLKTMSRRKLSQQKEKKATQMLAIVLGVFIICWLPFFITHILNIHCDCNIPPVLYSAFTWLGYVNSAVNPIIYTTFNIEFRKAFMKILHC

Compound	Ki [1, 3] [nM]	Ki [2, 4] [nM]	Ki (dopamine D2 receptor; [5]) [nM]	Ki [1] [nM]	Ki [2] [nM]	Ki (dopamine D2 receptor) [nM]	melting point [°C]
COc1ccccc1N1CCN(CCCSc2nnc(-c3ccccc3)o2)CC1 [Compound 8, 2-((3-(4-(2-methoxyphenyl)piperazin-1-yl)propyl)thio)-5-phenyl-1,3,4-oxadiazole]				> 10000	> 10000	> 10000	
c1ccc(-c2nnc(SCCCN3CCN(c4nsc5ccccc45)CC3)o2)cc1 [Compound 11, 2-((3-(4-(benzo[d]isothiazol-3-yl)piperazin-1-yl)propyl)thio)-5-phenyl-1,3,4-oxadiazole]				19 ± 2.3	61.4 ± 5.8	2570 ± 321	69 to 71
Fc1ccc2c(C3CCN(CCCSc4nnc(-c5ccc(C(F)(F)F)cc5)o4)CC3)noc2c1 [Compound 18, 2-(3-(4-(6-fluorobenzo[d]isoxazol-3-yl)piperidin-1-yl)propylthio)-5-(4-(trifluoromethyl)phenyl)-1,3,4-oxadiazole]				51 ± 4.9	24.7 ± 2.8	94.5 ± 8.9	122 to 124
FC(F)(F)c1cccc(N2CCN(CCCSc3nnc(-c4ccccc4)o3)CC2)c1 [Compound 10, 2-((3-(4-(3-(trifluoromethyl)phenyl)piperazin-1-yl)propyl)thio)-5-phenyl-1,3,4-oxadiazole]				> 10000	> 10000	> 10000	68 to 69
Fc1ccc2c(C3CCN(CCCSc4nnc(-c5ccncc5)o4)CC3)noc2c1 [Compound 26, 2-(3-(4-(6-fluorobenzo[d]isoxazol-3-yl)piperidin-1-yl)propylthio)-5-(pyridin-4-yl)-1,3,4-oxadiazole]	60.6 ± 8.6	59.2 ± 7.6	260 ± 32.1				
c1ccc2c(N3CCN(CCCSc4nnc(-c5ccncc5)o4)CC3)nsc2c1 [Compound 25, 2-(3-(4-(benzo[d]isothiazol-3-yl)piperazin-1-yl)propylthio)-5-(pyridin-4-yl)-1,3,4-oxadiazole]				> 10000	390 ± 36.5	> 10000	93 to 94
Fc1ccc2c(C3CCN(CCCSc4nnc(-c5ccccc5)o4)CC3)noc2c1 [Compound 12, 2-(3-(4-(6-fluorobenzo[d]isoxazol-3-yl)piperidin-1-yl)propylthio)-5-phenyl-1,3,4-oxadiazole]				18.9 ± 1.6	11.3 ± 1.2	2970 ± 381	106 to 107
Clc1cccc(N2CCN(CCCSc3nnc(-c4ccccc4)o3)CC2)c1Cl [Compound 9, 2-((3-(4-(2,3-dichlorophenyl)piperazin-1-yl)propyl)thio)-5-phenyl-1,3,4-oxadiazole]				> 10000	> 10000	> 10000	82 to 84
Cc1cccc(N2CCN(CCCSc3nnc(-c4ccccc4)o3)CC2)c1C [Compound 7, 2-((3-(4-(2,3-dimethylphenyl)piperazin-1-yl)propyl)thio)-5-phenyl-1,3,4-oxadiazole]				> 10000	374 ± 33	> 10000	86 to 88
Fc1ccc2c(C3CCN(CCCSc4nnc(-c5cccs5)o4)CC3)noc2c1 [Compound 24, 2-(3-(4-(6-fluorobenzo[d]isoxazol-3-yl)piperidin-1-yl)propylthio)-5-(thiophen-2-yl)-1,3,4-oxadiazole]	96.6 ± 10.3	50.3 ± 6.5	91 ± 11.2				

The next lines start with results.

Ki [1, 3] [nM]	Ki [2, 4] [nM]	Ki (dopamine D2 receptor; [5]) [nM]	Compound	Ki [1] [nM]	Ki [2] [nM]	Ki (dopamine D2 receptor) [nM]	melting point [°C]
> 10000	50.8 ± 5.3	487 ± 46.3	FC(F)(F)c1ccc(-c2nnc(SCCCN3CCN(c4nsc5ccccc45)CC3)o2)cc1 [Compound 17, 2-((3-(4-(benzo[d]isothiazol-3-yl)piperazin-1-yl)propyl)thio)-5-(4-(trifluoromethyl)phenyl)-1,3,4-oxadiazole]				
346 ± 35.9	114 ± 12.1	138 ± 13.6	c1ccc2c(-c3nnc(SCCCN4CCN(c5nsc6ccccc56)CC4)o3)cccc2c1 [Compound 21, 2-(3-(4-(benzo[d]isothiazol-3-yl)piperazin-1-yl)propylthio)-5-(naphthalen-1-yl)-1,3,4-oxadiazole]				
14.8 ± 1.5	15.8 ± 1.3	125 ± 12.4	Fc1ccc(-c2nnc(SCCCN3CCC(c4noc5cc(F)ccc45)CC3)o2)cc1 [Compound 20, 2-(3-(4-(6-fluorobenzo[d]isoxazol-3-yl)piperidin-1-yl)propylthio)-5-(4-fluorophenyl)-1,3,4-oxadiazole]				
450 ± 49.8	54.1 ± 6.9	> 10000	c1csc(-c2nnc(SCCCN3CCN(c4nsc5ccccc45)CC3)o2)c1 [Compound 23, 2-(3-(4-(benzo[d]isothiazol-3-yl)piperazin-1-yl)propylthio)-5-(thiophen-2-yl)-1,3,4-oxadiazole]				
> 10000	17.2 ± 1.6	96.7 ± 9.5	COc1ccc(-c2nnc(SCCCN3CCN(c4nsc5ccccc45)CC3)o2)cc1 [Compound 13, 2-((3-(4-(benzo[d]isothiazol-3-yl)piperazin-1-yl)propyl)thio)-5-(4-methoxyphenyl)-1,3,4-oxadiazole]				
> 10000	> 10000	> 10000	Fc1ccc(-c2nnc(SCCCN3CCN(c4nsc5ccccc45)CC3)o2)cc1 [Compound 19, 2-(3-(4-(benzo[d]isothiazol-3-yl)piperazin-1-yl)propylthio)-5-(4-fluorophenyl)-1,3,4-oxadiazole]				
14.2 ± 1.3	27.2 ± 2.8	126 ± 13.5	Clc1ccc(-c2nnc(SCCCN3CCN(c4nsc5ccccc45)CC3)o2)cc1 [Compound 15, 2-((3-(4-(benzo[d]isothiazol-3-yl)piperazin-1-yl)propyl)thio)-5-(4-chlorophenyl)-1,3,4-oxadiazole]				
